Experimental data: ChEMBL document CHEMBL6134778, “Spiro-Azetidine Oxindoles as Long-Acting Injectables for Pre-Exposure Prophylaxis against Respiratory Syncytial Virus Infections” (J Med Chem, 2024)
Converted amounts (≈) assume the structure as drawn.

Legend:
[1] = Intrinsic clearance in human hepatocytes assessed per million cells at 1 uM measured after 180 mins by LC-MS/MS analysis; format: ADME, cell-based, Hepatocyte; settings: read-out: CLH
[2] = Intrinsic clearance in human liver microsomes assessed per mg protein at 1 uM measured after 60 mins in presence of NADPH by LC-MS/MS analysis; format: ADME, Microsome; settings: read-out: CLH
[3] = Thermodynamic solubility in aqueous buffer at pH 7 incubated for 24 hrs by UPLC analysis; format: physicochemical; settings: read-out: Therm_solubility
[4] = tested on: Respiratory syncytial virus; test: Antiviral activity against RSV A2 harboring eGFP infected in human HeLa cells assessed as reduction in virus replication measured after 3 days by laser microscopy; format: functional, organism-based; settings: 72 h
Canis familiaris [5] = test: Particle size for the 50th percentile of the cumulative volume distribution in Beagle dog at 20 mg/kg, IM […]; format: ADME, organism-based, Canis lupus familiaris; settings: in vivo
Rattus norvegicus [6] = test: Release rate constant in Sprague-Dawley rat at 50 mg/kg, IM measured over 12 weeks by LC-MS/MS analysis; format: ADME, organism-based; settings: in vivo, 2016 h
Canis familiaris [7] = test: Release rate constant in Beagle dog at 20 mg/kg, IM by LC-MS/MS analysis; format: ADME, organism-based, Canis lupus familiaris; settings: in vivo
[8] = Volume of distribution at steady state in Beagle dog at 0.25 mg/kg, iv by LC-MS/MS analysis; format: ADME, organism-based, Canis lupus familiaris; settings: in vivo, read-out: Vdss
[9] = Bioavailability in Sprague-Dawley rat assessed as dose released at 50 mg/kg, IM measured over 12 weeks by LC-MS/MS analysis; format: ADME, organism-based; settings: in vivo
[10] = Volume of distribution at steady state in Sprague-Dawley rat at 1 mg/kg, iv by LC-MS/MS analysis; format: ADME, organism-based; settings: in vivo, read-out: Vdss
[11] = Clearance in Sprague-Dawley rat at 1 mg/kg, iv by LC-MS/MS analysis; format: ADME, organism-based; settings: in vivo
[12] = Bioavailability in Beagle dog assessed as dose released at 20 mg/kg, IM by LC-MS/MS analysis; format: ADME, organism-based, Canis lupus familiaris; settings: in vivo
[13] = Equilibrium solubility of the compound […] at pH 7 measured after 3 days by LC-MS/MS analysis; format: physicochemical; settings: time 3 day
[14] = Chromatographic hydrophobicity index, logD of the compound at pH 7.4 by UPLC analysis; format: physicochemical; settings: buffer
[15] = Clearance in Beagle dog at 0.25 mg/kg, iv by LC-MS/MS analysis; format: ADME, organism-based, Canis lupus familiaris; settings: in vivo
Rattus norvegicus [16] = test: Particle size for the 50th percentile of the cumulative volume distribution in Sprague-Dawley rat at 50 mg/kg, IM […]; format: ADME, organism-based; settings: in vivo
HeLa = test: Cytotoxicity against human HeLa cells assessed as reduction in cell viability at highest concentration measured after 3 days by ATPlite assay; format: toxicity, cell-based; settings: 72 h, time 3 day
[17] = tested on: Respiratory syncytial virus; test: Antiviral activity against RSV A2 harboring eGFP infected in human HeLa cells assessed as reduction in virus replication by measuring 3X protein-adjusted effective concentration for 90% inhibition measured after 3 days in presence of human serum albumin and alpha(1)-acid glycoprotein by laser microscopy; format: functional; settings: time 3 day

Row | Structure (SMILES) | hepatocyte CLint at 1 µM [1] [µL/min/1e6 cells] | microsomal CLint at 1 µM [2] [µL/min/mg] | solubility thermodynamic at 24 h [3] [µg/mL] | EC50 [4] [nM] | Particle size (D50) (Canis familiaris [5]) [um] | Ka (Rattus norvegicus [6]) [h⁻¹] | Ka (Canis familiaris [7]) [h⁻¹] | Vd [8] [L/kg] | bioavailability [9] [%] | Vd [10] [L/kg] | clearance [11] [mL/min/kg] | bioavailability [12] [%] | solubility at 72 h [13] [µM] | CHI [14] | clearance [15] [mL/min/kg] | Median particle size (D50) (Rattus norvegicus [16]) [um] | Activity (HeLa) | protein-adjusted EC90 [17] [µg/mL]
1 | CC(C)(O)C(=O)N1CC2(C1)C(=O)N(Cc1nc3cc(Cl)ccc3n1CCCC(F)(F)F)c1ccccc12 | < 1.2 | < 7.7 | < 0.1 | 1 | 1.03 | 0.001 | 0.003 | 1.77 | 85 | 2.78 | 9.3 | 102 | 0.74 (≈ 0.396 µg/mL) | 2.84 | 3.56 | 1.02 | Non-toxic | 0.031
2 | CC(C)C(=O)N1CC2(C1)C(=O)N(Cc1nc3cc(Cl)ccc3n1CCCCF)c1cnccc12 | < 1.2 | < 7.7 | 44 (≈ 90.9 µM) | 1 | 5.43 | 0.013 | 0.033 | 0.82 | 142 | 5.3 | 26.3 | 122 | 361 (≈ 175 µg/mL) | 2.14 | 11.8 | 9.11 | Non-toxic | 0.017
3 | CC(C)NC(=O)N1CC2(C1)C(=O)N(Cc1nc3cc(Cl)ccc3n1CCCC(F)(F)F)c1cnccc12 | < 1.2 | < 7.7 | < 0.1 | 0.23 | 5.03 | 0.005 | 0.01 | 1.66 | 107 | 1.94 | 36.9 | 90 | 11 (≈ 5.88 µg/mL) | 2.39 | 14.6 | 4.36 | Non-toxic | 0.0037
